Consider two molecules from patent US6583090B1, “Hetaryl-substituted benzyl phenyl ethers, method for the production thereof, and their use for combating harmful fungi and animal pests” (priority 1998, dated 2003).

The subject of the test is Puccinia recondita. Kind of test: Curative activity against Puccinia recondita on wheat (leaf rust of wheat). It counts as in vivo, Puccinia recondita on wheat c.v. Frühgold. Particulars: 16 ppm, sprayed the day after infection, 7 days in greenhouse, untreated plants 80% infection. As to the method:
The active ingredients, separately or together, were prepared as a 10% strength emulsion in a mixture of 70% by weight of cyclohexanone, 20% by weight of Nekanil® LN (Lutensol® AP6, wetting agent having emulsifying and dispersant action based on ethoxylated alkylphenols) and 10% by weight of Wettol® EM (nonionic emulsifier based on ethoxylated castor oil) and diluted with water to the desired concentration.
Leaves of potted wheat seedlings c.v. “Frühgold” were dusted with leaf rust spores (Puccinia recondite). The pots were then placed for 24 hours into a chamber with high atmospheric humidity (90 to 95%) at 20 to 25° C. During this time, the spores germinated, and the germinal tubes penetrated the leaf tissue. The next day, the infected plants were sprayed to runoff point with an aqueous spray liquor which had been prepared using a stock solution of 10% of active ingredient, 63% of cyclohexanone and 27% of emulsifier. After the spray coating had dried on, the test plants were cultivated for 7 days in a greenhouse at from 20 to 22° C. and a relative atmospheric humidity of 65 to 70%. The extent of rust development on the leaves was then determined.

As for `CON=C(C(=O)OC)c1ccccc1COc1ccc(-n2nc(C)cc2C)cc1Cl` [I-12, methyl 2-{2-chloro-[4-(3,5-dimethyl)-pyrazol-1-yl]phenoxymethylene}phenylglyoxylate O-methyloxime], the “% infection (rust development on the leaves)” value is reported as “no infection”.

As to `CNC(=O)C(=NOC)c1ccccc1COc1ccc(-n2nc(C)cc2C)cc1Cl` [I-11, N-methyl-2-{2-chloro-[4-(3,5-dimethyl)pyrazol-1-yl]phenoxymethylene}-phenylglyoxamide O-methyloxime], the “% infection (rust development on the leaves)” value is “no infection”.
